*1 amine or outer side, *2 acyl side, *3 side chain or, on linkers, in order; H or OH if unused. Where a SMILES comes first, the peptide text is derived from it. Bridges are numbered along the chain shown (N, C = ends). [ ]: non-standard residue; d: D form. ξ: configuration not given here. X10 = CC(C)C[C@H](CC(=O)[C@H](Cc1cnc[nH]1)N[*:1])C(=O)[*:2]; Trp(1-CH2COOH) = N[C@@H](Cc1cn(CC(=O)O)c2ccccc12)C(=O)O; Phe(3,4,5-F3) = N[C@@H](Cc1cc(F)c(F)c(F)c1)C(=O)O; NMePhe(4-F) = CN[C@@H](Cc1ccc(F)cc1)C(=O)O; Phe(4-F) = N[C@@H](Cc1ccc(F)cc1)C(=O)O; Phe(4-Me) = Cc1ccc(C[C@H](N)C(=O)O)cc1; d(cisHyp) = O=C(O)[C@H]1C[C@@H](O)CN1; Bta = N[C@@H](Cc1csc2ccccc12)C(=O)O; NMeY = CN[C@@H](Cc1ccc(O)cc1)C(=O)O; Hyp = O=C(O)[C@@H]1C[C@@H](O)CN1; NMeF = CN[C@@H](Cc1ccccc1)C(=O)O; X1 = O=C([C@H]1COCCN1[*:1])[*:2]; dHyp = O=C(O)[C@H]1C[C@H](O)CN1; NMeNle = CCCC[C@H](NC)C(=O)O; NMeM = CN[C@@H](CCSC)C(=O)O; NMeV = CN[C@H](C(=O)O)C(C)C; dPip = O=C(O)[C@H]1CCCCN1; NMeA = CN[C@@H](C)C(=O)O; Orn = NCCC[C@H](N)C(=O)O; dThz = O=C(O)[C@H]1CSCN1; Dab = NCC[C@H](N)C(=O)O; Dap = NC[C@H](N)C(=O)O; ξC = NC(CS)C(=O)O
Molecular target: T1, Human PD-L1/PD-1 (Homo sapiens, UniProt Q9NZQ7)
T1 construct: TVMV protease cleavage site (C); made in house; host or cells: HEK293T cells
Test: HTRF Human PD-L1/PD-1 binding assay (PD-1-Ig/PD-L1-His)
Conditions: PD-L1-His 10 nM, PD-1-Ig 20 nM; class symbol; read-out: HTRF Human PD-L1/PD-1 Binding Assay IC50 Range
Description: Methods for Testing the Ability of Macrocyclic Peptides to Compete for the Binding of PD-1 to PD-L1 Using Homogenous Time-Resolved Fluorescence (HTRF) Binding Assays
The ability of the macrocyclic peptides of the present disclosure to bind to PD-L1 was investigated using a PD-1/PD-L1 Homogenous Time-Resolved Fluorescence (HTRF) binding assay.
Homogenous Time-Resolved Fluorescence (HTRF) Assays of Binding of Soluble PD-1 to Soluble PD-L1. Soluble PD-1 and soluble PD-L1 refers to proteins with carboxyl-end truncations that remove the transmembrane-spanning regions and are fused to heterologous sequences, specifically the Fc portion of the human immunoglobuling G sequence (Ig) or the hexahistidine epitope tag (His). All binding studies were performed in an HTRF assay buffer consisting of dPBS supplemented with 0.1% (w/v) bovine serum albumin and 0.05% (v/v) Tween-20. For the PD-1-Ig/PD-L1-His binding assay, inhibitors were pre-incubated with PD-L1-His (10 nM final) for 15 m in 4 μl of assay buffer, followed by addition of PD-1-Ig (20 nM final) in 1 μl of assay buffer and further incubation for 15 m. PD-L1 fusion proteins from either human, cynomolgus macaques, or mouse were used. HTRF detection was achieved using europium crypate-labeled anti-Ig monoclonal antibody (1 nM final) and allophycocyanin (APC) labeled anti-His monoclonal antibody (20 nM final). Antibodies were diluted in HTRF detection buffer and 5 μl was dispensed on top of binding reaction. The reaction was allowed to equilibrate for 30 minutes and signal (665 nm/620 nm ratio) was obtained using an EnVision fluorometer. Additional binding assays were established between PD-1-Ig/PD-L2-His (20 and 5 nM, respectively), CD80-His/PD-L1-Ig (100 and 10 nM, respectively) and CD80-His/CTLA4-Ig (10 and 5 nM, respectively). Competition studies between biotinylated Compound No. 71 and human PD-L1-His were performed as follows. Macrocyclic peptide inhibitors were pre-incubated with PD-L1-His (10 nM final) for 60 minutes in 4 μl of assay buffer followed by addition of biotinylated Compound No. 71 (0.5 nM final) in 1 μl of assay buffer. Binding was allowed to equilibrate for 30 minutes followed by addition of europium crypated labeled Streptavidin (2.5 pM final) and APC-labeled anti-His (20 nM final) in 5 μl of HTRF buffer. The reaction was allowed to equilibrate for 30 m and signal (665 nm/620 nm ratio) was obtained using an EnVision fluorometer.
Recombinant Proteins. Carboxyl-truncated human PD-1 (amino acids 25-167) with a C-terminal human Ig epitope tag [hPD-1 (25-167)-3S-IG] and human PD-L1 (amino acids 18-239) with a C-terminal His epitope tag [hPD-L1([…])-tobacco vein mottling virus protease cleavage site (TVMV)-His] were expressed in HEK293T cells and purified sequentially by rProteinA affinity chromatography and size exclusion chromatography.

T1 sequence (Q9NZQ7 with tags, fused parts or gaps): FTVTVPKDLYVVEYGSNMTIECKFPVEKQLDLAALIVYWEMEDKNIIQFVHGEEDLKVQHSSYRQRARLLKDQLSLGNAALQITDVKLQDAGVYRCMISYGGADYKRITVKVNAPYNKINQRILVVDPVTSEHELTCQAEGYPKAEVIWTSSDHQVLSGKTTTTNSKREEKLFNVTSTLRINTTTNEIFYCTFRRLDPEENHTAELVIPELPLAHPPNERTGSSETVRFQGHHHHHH

SMILES	IC50 [nM]
CCCC[C@H]1C(=O)N(C)[C@@H](CCCC)C(=O)N[C@@H](CCCNC(=N)N)C(=O)N[C@H](C(=O)NCC(N)=O)CSCC(=O)N[C@@H](Cc2ccc(C)cc2)C(=O)N(C)[C@@H](C)C(=O)N[C@@H](CC(N)=O)C(=O)N2CCC[C@H]2C(=O)N[C@@H](Cc2cnc[nH]2)C(=O)C[C@@H](CC(C)C)C(=O)N2C[C@H](O)C[C@H]2C(=O)N[C@@H](Cc2c[nH]c3ccccc23)C(=O)N[C@@H](CO)C(=O)N[C@@H](Cc2c[nH]c3ccccc23)C(=O)N1C [Example 7071] ({CH2CO}-[Phe(4-Me)][NMeA]NP[X10][Hyp]WSW[NMeNle][NMeNle]RCG-NH2; thioether N-13)	1 to 9.9
CCCC[C@H]1C(=O)N2C[C@@H](O)C[C@@H]2C(=O)N[C@@H](CC(=O)O)C(=O)N[C@@H](C(C)C)C(=O)N(C)[C@@H](Cc2ccccc2)C(=O)N[C@@H](CCC(=O)O)C(=O)N2C[C@H](O)C[C@@H]2C(=O)N[C@@H](Cc2c[nH]c3ccccc23)C(=O)N[C@@H](Cc2ccc(O)cc2)C(=O)N[C@@H](CC(C)C)C(=O)N[C@H](C(=O)NCC(N)=O)CSCC(=O)N[C@@H](Cc2cc(F)c(F)c(F)c2)C(=O)N(C)[C@@H](Cc2ccccc2)C(=O)N1C [Example 9369] ({CH2CO}-[Phe(3,4,5-F3)][NMeF][NMeNle][dHyp]DV[NMeF]E[d(cisHyp)]WYLCG-NH2; thioether N-13)	1 to 9.9
CCCC[C@H]1C(=O)N(C)[C@@H](CCCC)C(=O)N[C@@H](CC(C)C)C(=O)N[C@H](C(=O)NCC(N)=O)CSCC(=O)N[C@@H](Cc2ccc(O)cc2)C(=O)N(C)[C@@H](C)C(=O)N[C@@H](CC(N)=O)C(=O)N(C)[C@@H](C)C(=O)N[C@@H](Cc2cnc[nH]2)C(=O)N[C@@H](CCC(N)=O)C(=O)N2C[C@H](O)C[C@H]2C(=O)N[C@@H](Cc2c[nH]c3ccccc23)C(=O)N[C@@H](CO)C(=O)N[C@@H](Cc2c[nH]c3ccccc23)C(=O)N1C [Example 5234] ({CH2CO}-Y[NMeA]N[NMeA]HQ[Hyp]WSW[NMeNle][NMeNle]LCG-NH2; thioether N-14)	1 to 9.9
CCCC[C@H]1C(=O)N2CCC[C@@H]2C(=O)N[C@@H](CCN)C(=O)N[C@@H](C(C)C)C(=O)N(C)[C@@H](Cc2ccccc2)C(=O)N[C@@H](CC(=O)O)C(=O)N2CCCC[C@@H]2C(=O)N[C@@H](Cc2c[nH]c3ccccc23)C(=O)N[C@@H](Cc2ccc(O)cc2)C(=O)N[C@@H](CC(C)C)C(=O)N[C@H](C(=O)NCC(N)=O)CSCC(=O)N[C@@H](Cc2cc(F)c(F)c(F)c2)C(=O)N(C)[C@@H](Cc2ccc(F)cc2)C(=O)N1C [Example 10581] ({CH2CO}-[Phe(3,4,5-F3)][NMePhe(4-F)][NMeNle][dP][Dab]V[NMeF]D[dPip]WYLCG-NH2; thioether N-13)	10 to 99.9
CCCC[C@H]1C(=O)N(C)[C@@H](CCCC)C(=O)N[C@@H](CC(C)C)C(=O)N[C@H](C(N)=O)CSCC(=O)N[C@@H](Cc2ccc(O)cc2)C(=O)N(C)[C@@H](C)C(=O)N[C@@H](CC(N)=O)C(=O)N2CCC[C@H]2C(=O)N[C@@H](CN)C(=O)N[C@@H](CC(C)C)C(=O)N2C[C@H](O)C[C@H]2C(=O)N[C@@H](Cc2c[nH]c3ccccc23)C(=O)N[C@@H](CCN)C(=O)N[C@@H](Cc2cn(CC(=O)O)c3ccccc23)C(=O)N1C [Example 6310] ({CH2CO}-Y[NMeA]NP[Dap]L[Hyp]W[Dab][Trp(1-CH2COOH)][NMeNle][NMeNle]LC-NH2; thioether N-14)	10 to 99.9
CCCC[C@H]1C(=O)N2C[C@@H](O)C[C@@H]2C(=O)N[C@@H](CC(=O)O)C(=O)N[C@@H](C(C)C)C(=O)N(C)[C@@H](Cc2ccccc2)C(=O)N[C@@H](Cc2ccc(O)cc2)C(=O)N2C[C@H](O)C[C@@H]2C(=O)N[C@@H](Cc2c[nH]c3ccccc23)C(=O)N[C@@H](Cc2ccc(O)cc2)C(=O)N[C@@H](CCCN)C(=O)N[C@H](C(=O)NCC(N)=O)CSCC(=O)N[C@@H](Cc2cc(F)c(F)c(F)c2)C(=O)N(C)[C@@H](Cc2ccccc2)C(=O)N1C [Example 9368] ({CH2CO}-[Phe(3,4,5-F3)][NMeF][NMeNle][dHyp]DV[NMeF]Y[d(cisHyp)]WY[Orn]CG-NH2; thioether N-13)	1 to 9.9
CCCC[C@H]1C(=O)N2CCC[C@@H]2C(=O)N[C@@H](CC(=O)O)C(=O)N[C@@H](C(C)C)C(=O)N(C)[C@@H](C(C)C)C(=O)N[C@@H](CCC(N)=O)C(=O)N2CCC[C@@H]2C(=O)N[C@@H](Cc2c[nH]c3ccccc23)C(=O)N[C@@H](Cc2ccc(O)cc2)C(=O)N[C@@H](CCCN)C(=O)N[C@H](C(=O)NCC(N)=O)CSCC(=O)N[C@@H](Cc2ccc(F)cc2)C(=O)N(C)[C@@H](Cc2ccccc2)C(=O)N1C [Example 9247] ({CH2CO}-[Phe(4-F)][NMeF][NMeNle][dP]DV[NMeV]Q[dP]WY[Orn]CG-NH2; thioether N-13)	1000 to 10000
CSCC[C@H]1C(=O)N2C[C@H](O)C[C@H]2C(=O)N[C@@H](CC(=O)O)C(=O)N[C@@H](C(C)C)C(=O)N(C)[C@@H](Cc2ccccc2)C(=O)N[C@@H](Cc2ccc(O)cc2)C(=O)N2C[C@H](O)C[C@H]2C(=O)N[C@@H](Cc2c[nH]c3ccccc23)C(=O)N[C@@H](Cc2ccc(O)cc2)C(=O)N[C@@H](CC(C)C)C(=O)N[C@H](C(=O)NCC(N)=O)CSCC(=O)N[C@@H](Cc2ccccc2)C(=O)N(C)[C@@H](Cc2ccccc2)C(=O)N1C [Example 9166] ({CH2CO}-F[NMeF][NMeM][Hyp]DV[NMeF]Y[Hyp]WYLCG-NH2; thioether N-13)	1000 to 10000
CCCC[C@H]1C(=O)N2CSC[C@@H]2C(=O)N[C@@H](CC(=O)O)C(=O)N[C@@H](C(C)C)C(=O)N(C)[C@@H](Cc2ccccc2)C(=O)N[C@@H](Cc2ccc(O)cc2)C(=O)N2CCC[C@@H]2C(=O)N[C@@H](Cc2c[nH]c3ccccc23)C(=O)N[C@@H](Cc2ccc(O)cc2)C(=O)N[C@@H](CC(C)C)C(=O)N[C@H](C(=O)NCC(N)=O)CSCC(=O)N[C@@H](Cc2cc(F)c(F)c(F)c2)C(=O)N(C)[C@@H](Cc2ccccc2)C(=O)N1C [Example 10093] ({CH2CO}-[Phe(3,4,5-F3)][NMeF][NMeNle][dThz]DV[NMeF]Y[dP]WYLCG-NH2; thioether N-13)	1 to 9.9
CCCC[C@H]1C(=O)N2CCC[C@@H]2C(=O)N[C@@H](CC(=O)O)C(=O)N[C@@H](C(C)C)C(=O)N(C)[C@@H](Cc2ccccc2)C(=O)N[C@@H](CCN)C(=O)N2CCOC[C@@H]2C(=O)N[C@@H](Cc2c[nH]c3ccccc23)C(=O)N[C@@H](Cc2ccc(O)cc2)C(=O)N[C@@H](CCC(=O)O)C(=O)N[C@H](C(=O)NCC(N)=O)CSCC(=O)N[C@@H](Cc2cc(F)c(F)c(F)c2)C(=O)N(C)[C@@H](Cc2ccc(O)cc2)C(=O)N1C [Example 10624] ({CH2CO}-[Phe(3,4,5-F3)][NMeY][NMeNle][dP]DV[NMeF][Dab][X1]WYECG-NH2; thioether N-13)	10 to 99.9
CCCC[C@H]1C(=O)N(C)CC(=O)N[C@@H](CC(=O)O)C(=O)NC(C(C)c2ccccc2)C(=O)N(C)[C@@H](Cc2ccccc2)C(=O)N[C@@H](Cc2ccc(O)cc2)C(=O)N(C)CC(=O)N[C@@H](Cc2c[nH]c3ccccc23)C(=O)N[C@@H](Cc2ccc(O)cc2)C(=O)N[C@@H](CC(C)C)C(=O)N[C@H](C(=O)NCC(N)=O)CSCC(=O)N[C@@H](Cc2ccccc2)C(=O)N(C)[C@@H](Cc2ccccc2)C(=O)N1C (single isomer, unassigned) [Example 3230-B]	100 to 990
CCCC[C@H]1C(=O)N(C)[C@@H](CCCC)C(=O)N[C@@H](CCN)C(=O)NC(C(=O)NCC(N)=O)CSCC(=O)N[C@@H](Cc2ccc(O)cc2)C(=O)N(C)[C@@H](C)C(=O)N[C@@H](CC(N)=O)C(=O)N2CCC[C@H]2C(=O)N[C@@H](CC(N)=O)C(=O)N[C@@H](CC(C)C)C(=O)N2C[C@H](O)C[C@H]2C(=O)N[C@@H](Cc2c[nH]c3ccccc23)C(=O)N[C@@H](CO)C(=O)N[C@@H](Cc2csc3ccccc23)C(=O)N1C (stereo partly drawn) [Example 9165] ({CH2CO}-Y[NMeA]NPNL[Hyp]WS[Bta][NMeNle][NMeNle][Dab][ξC]G-NH2; thioether N-14)	1 to 9.9
